Experimental data as given in patent US20250195530A1, “POLQ INHIBITORS” (ASTRAZENECA AB, priority 2022, published 2025).

Columns and labels:
DLD-1 BRCA2−/− cells = assay: Homologous recombination synthetic lethal inhibition of proliferation, DLD-1 BRCA2-/- (Cell Titre Glo 3D); assay type: cell-based; settings: mean; for IC50: Homo sapiens, DLD-1, DLD-1 BRCA2 −/−, read-out: POLQ PD Prolif Lumin BRCA2 −/− mean pIC50 (converted); for POLQ PD Prolif Lumin BRCA2 −/− mean pIC50: DLD-1 BRCA2 −/−
How it was run: (§1)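 Proliferation of HR-deficient DLD-1 BRCA2−/− versus isogenic wild-type DLD-1 was measured by ATP luminescence (CellTiter-Glo 3D). Compound exposure lasted 12 or 7 days, respectively, with a fresh dose on day 6. IC50 was the concentration halving maximal signal.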

DLD-1 cells = assay: Inhibition of proliferation, DLD-1 BRCA2 wt control (Cell Titre Glo 3D); assay type: cell-based; settings: mean; for IC50: Homo sapiens, DLD-1, DLD1 BRCA2 wt, read-out: POLQ PD Prolif Lumin DLD1 mean pIC50 (converted); for POLQ PD Prolif Lumin DLD1 mean pIC50: DLD1 BRCA2 wt
How it was run: as §1

| IC50 (DLD-1 cells) [nM] | POLQ PD Prolif Lumin DLD1 mean pIC50 (DLD-1 cells) | SMILES | IC50 (DLD-1 BRCA2−/− cells) [nM] | POLQ PD Prolif Lumin BRCA2 −/− mean pIC50 (DLD-1 BRCA2−/− cells) |
| --- | --- | --- | --- | --- |
| > 10000 | – | COc1ccc(Cl)cc1Cn1c(-c2cccc(OCC[C@H](C)C(=O)O)c2Cl)nc2c(OC3(C)CC3)ncnc21 [Example U73, (S)-4-(2-chloro-3-(9-(5-chloro-2-methoxybenzyl)-6-(1-methylcyclopropoxy)-9H-purin-8-yl)phenoxy)-2-methylbutanoic acid] | 2 | – |
| – | <5.0 | COc1ccc(F)cc1Cn1c(-c2cccc(O[C@H]3C[C@@H](C(=O)O)C3)c2Cl)nc2c(OC3(C)CC3)ncnc21 [Example U74, (1s,3s)-3-(2-chloro-3-(9-(5-fluoro-2-methoxybenzyl)-6-(1-methylcyclopropoxy)-9H-purin-8-yl)phenoxy)cyclobutane-1-carboxylic acid] | – | 7.2 |
| > 10000 | – | COc1ccc(Cl)cc1Cn1c(-c2cccc(OCC[C@@H](C)C(=O)O)c2Cl)nc2c(OC3(C)CC3)ncnc21 [Example U75, (R)-4-(2-chloro-3-(9-(5-chloro-2-methoxybenzyl)-6-(1-methylcyclopropoxy)-9H-purin-8-yl)phenoxy)-2-methylbutanoic acid] | 2 | – |
| > 10000 | – | COc1ccc(C(F)(F)F)cc1Cn1c(-c2ccc(OCC[C@H](C)C(=O)O)cc2Cl)nc2c(OC3(C)CC3)ncnc21 [Example U76, (S)-4-(3-chloro-4-(9-(2-methoxy-5-(trifluoromethyl)benzyl)-6-(1-methylcyclopropoxy)-9H-purin-8-yl)phenoxy)-2-methylbutanoic acid] | 200 | – |
| > 10000 | – | C[C@H](CCOc1ccc(-c2nc3c(OC4(C)CC4)ncnc3n2Cc2cc(Cl)ccc2C#N)c(Cl)c1)C(=O)O [Example U81, (R)-4-(3-chloro-4-(9-(5-chloro-2-cyanobenzyl)-6-(1-methylcyclopropoxy)-9H-purin-8-yl)phenoxy)-2-methylbutanoic acid] | 20 | – |
| > 10000 | – | C[C@@H](CCOc1ccc(-c2nc3c(OC4(C)CC4)ncnc3n2Cc2cc(Cl)ccc2C#N)c(Cl)c1)C(=O)O [Example U82, (S)-4-(3-chloro-4-(9-(5-chloro-2-cyanobenzyl)-6-(1-methylcyclopropoxy)-9H-purin-8-yl)phenoxy)-2-methylbutanoic acid] | 50.1 | – |
| > 10000 | – | COc1ccc(F)cc1Cn1c(-c2cccc(OCCC(=O)O)c2Cl)nc2c(OC3(C)CC3)ncnc21 [Example U83, 3-(2-chloro-3-(9-(5-fluoro-2-methoxybenzyl)-6-(1-methylcyclopropoxy)-9H-purin-8-yl)phenoxy)propanoic acid] | 50.1 | – |
| – | <5.0 | CC1(Oc2ncnc3c2nc(-c2cccc(O[C@H]4C[C@@H](C(=O)O)C4)c2Cl)n3Cc2cc(Cl)ccc2C#N)CC1 [Example U84, (1s,3s)-3-(2-chloro-3-(9-(5-chloro-2-cyanobenzyl)-6-(1-methylcyclopropoxy)-9H-purin-8-yl)phenoxy)cyclobutane-1-carboxylic acid] | – | 7.3 |
| > 10000 | – | C[C@@H](CCOc1ccc(-c2nc3c(OC4(C)CC4)ncnc3n2Cc2cccc(Cl)c2)c(Cl)c1)C(=O)NCC(=O)O [Example U86, (S)-(4-(3-chloro-4-(9-(3-chlorobenzyl)-6-(1-methylcyclopropoxy)-9H-purin-8-yl)phenoxy)-2-methylbutanoyl)glycine] | 2510 | – |
| > 10000 | – | C[C@@H](CCOc1cccc(-c2nc3c(OC4(C)CC4)ncnc3n2Cc2cc(Cl)ccc2C#N)c1Cl)C(=O)O [Example U87, (S)-4-(2-chloro-3-(9-(5-chloro-2-cyanobenzyl)-6-(1-methylcyclopropoxy)-9H-purin-8-yl)phenoxy)-2-methylbutanoic acid] | 15.8 | – |
| 7940 | – | COc1ccc(C)cc1Cn1c(-c2cccc(OCCC(=O)O)c2Cl)nc2c(OC3(C)CC3)ncnc21 [Example U89, 3-(2-chloro-3-(9-(2-methoxy-5-methylbenzyl)-6-(1-methylcyclopropoxy)-9H-purin-8-yl)phenoxy)propanoic acid] | 15.8 | – |
| > 10000 | – | COc1ccc(Cl)cc1Cn1c(-c2cccc(OCCCOC(C)(C)C(=O)O)c2Cl)nc2c(OC3(C)CC3)ncnc21 [Example U90, 2-(3-(2-chloro-3-(9-(5-chloro-2-methoxybenzyl)-6-(1-methylcyclopropoxy)-9H-purin-8-yl)phenoxy)propoxy)-2-methylpropanoic acid] | 5.01 | – |
| – | <5.0 | COc1ccc(C)cc1Cn1c(-c2cccc(O[C@H]3CC[C@H](C(=O)O)CC3)c2Cl)nc2c(OC3(C)CC3)ncnc21 [Example U91, (1r,4r)-4-(2-chloro-3-(9-(2-methoxy-5-methylbenzyl)-6-(1-methylcyclopropoxy)-9H-purin-8-yl)phenoxy)cyclohexane-1-carboxylic acid] | – | 7.8 |
| > 10000 | – | COc1ccc(C)cc1Cn1c(-c2cccc(OCCCOCC(=O)O)c2Cl)nc2c(OC3(C)CC3)ncnc21 [Example U93, 2-(3-(2-chloro-3-(9-(2-methoxy-5-methylbenzyl)-6-(1-methylcyclopropoxy)-9H-purin-8-yl)phenoxy)propoxy)acetic acid] | 12.6 | – |
| > 10000 | – | COc1ccc(C)cc1Cn1c(-c2ccc(OCC[C@H](C)C(=O)O)cc2Cl)nc2c(OC3(C)CC3)ncnc21 [Example U94, (S)-4-(3-chloro-4-(9-(2-methoxy-5-methylbenzyl)-6-(1-methylcyclopropoxy)-9H-purin-8-yl)phenoxy)-2-methylbutanoic acid] | 50.1 | – |
| > 10000 | – | C[C@H](CCOc1cccc(-c2nc3c(OC4(C)CC4)ncnc3n2Cc2cc(Cl)ccc2C#N)c1Cl)C(=O)O [Example U95, (R)-4-(2-chloro-3-(9-(5-chloro-2-cyanobenzyl)-6-(1-methylcyclopropoxy)-9H-purin-8-yl)phenoxy)-2-methylbutanoic acid] | 2 | – |
| > 10000 | – | CC1(Oc2ncnc3c2nc(-c2cccc(OCCC(=O)O)c2Cl)n3Cc2cc(Cl)ccc2C#N)CC1 [Example U96, 3-(2-chloro-3-(9-(5-chloro-2-cyanobenzyl)-6-(1-methylcyclopropoxy)-9H-purin-8-yl)phenoxy)propanoic acid] | 10 | – |
| > 10000 | – | CC1(Oc2ncnc3c2nc(-c2cccc(OCCCOCC(=O)O)c2Cl)n3Cc2cc(Cl)ccc2C#N)CC1 [Example U98, 2-(3-(2-chloro-3-(9-(5-chloro-2-cyanobenzyl)-6-(1-methylcyclopropoxy)-9H-purin-8-yl)phenoxy)propoxy)acetic acid] | 31.6 | – |
